{"source": "paper PMC9465641", "about": "(Frontiers in Pharmacology, 2022)", "key": {"[1]": {"assay": "Population pharmacokinetic modeling of intravenous colistin sulfate (plasma LC-MS/MS, Phoenix NLME)", "type": "in vivo, human", "description": "This study was conducted at the Third Xiangya Hospital of Central South University between May 2021 and April 2022. The design of this research fully conformed to the principles of the Helsinki Accords, and the study protocol was approved by the Research Ethics Committee of the Third Xiangya Hospital of Central South University (No: 2021-S396). Written informed consent was obtained from all patients or their legal representatives.\n(§1) Colistin sulfate treatment was at the discretion of their medical teams. […] Colistin sulfate was routinely subjected to therapeutic drug monitoring (TDM) in our hospital. […] Other blood samples were collected randomly from residual blood of blood gas analysis or routine blood tests. In addition, urine samples from 6 patients with catheters in the intensive care unit were collected and recorded across a dosage interval (0–12 h after dosing) after 72 h of therapy. All samples were centrifuged for 10 min (4,000 ×g), and the supernatant was immediately collected and stored at −80°C pending analysis.\n(§2) Colistin A and colistin B in plasma and urinary samples were quantified using a validated ultraperformance liquid chromatography tandem mass spectrometry (LC-MS/MS) assay. Briefly, samples were pretreated with acetonitrile, and 1 μL supernatant was injected into the LC-MS/MS instrument for analysis. A Waters XBridge BEH HILIC (4.6 × 150 mm, 2.5 μm) column was used. The mobile phase, consisting of eluents A (0.1% formic acid in water, vol/vol) and B (methanol), was delivered at a flow of 0.5 ml/min. Analysis of independently prepared quality control samples indicated good reproducibility (coefficients of variation ≤12.57%), and accuracy ranged from 88.52% to 109.43%. The limit of quantification was 0.034 mg/L for colistin A and 0.059 mg/L for colistin B. Since colistin A and B had similar structures, molecular weights and pharmacokinetic characteristics, the concentrations of colistin A and B were added together and referred to as colistin ([Li et al., 2003]; [Couet et al., 2011]).\nPopulation PK analysis was performed using a non-linear mixed-effect modeling with the Phoenix® NLME software (version 8.3.4, Certara L.P. United States). The first-order conditional estimation-extended least-squares (FOCE-ELS) method was used to develop the PPK model. One- and two-compartment models with linear elimination were compared based on Akaike information criteria (AIC) and Bayesian information criterion (BIC). The inter-individual variability of PK parameters was assumed to follow a log-normal distribution and described using an exponential model, and residual variability was described by an additive, proportional, or combined error model. The coefficient of variation (CV%), goodness-of-fit plots, and the likelihood ratio test (-2 loglikelihood; -2LL) were used to evaluate the model.\nThen, a stepwise covariate modeling (SCM) method was used to explore candidate covariates on PK parameters, including age, sex, weight, ALT, AST, TBIL, DBIL, TBA, TP, ALB, UA, BUN, CrCL, WBC, NEUT, HGB, RBC, HCT, PLT, PT, TT, APTT, PA, FIB, CRP, PCT, LAC, and 24-h urine volume, where continuous covariates (e.g., age) were modeled by using the power function and categorical covariates (e.g., sex) were described by an exponential function. By comparing with the base model, a drop in objective function value (OFV) > 3.84 (p < 0.05, df = 1) during forward selection steps and an increase of OFV >6.63 (p < 0.01, df = 1) in backward elimination steps were the inclusion criteria for covariates.\nFinally, the reliability of the final model was evaluated by goodness-of-fit plots. Additionally, the performance of the final model was assessed by a prediction-corrected visual predictive check (pcVPC) of 1,000 replicates using Monte Carlo simulations, and a bootstrap analysis with 1,000 samples was conducted to evaluate the model stability."}, "[2]": {"assay": "Urinary excretion and renal clearance of colistin sulfate", "type": "in vivo, human", "description": "as §1, §2\nThe renal clearance (CLR) of colistin was calculated as the ratio of the amount recovered in urine to the area under the plasma concentration-time curve (AUC) during the same period ([Sandri et al., 2013]). The percentage of colistin sulfate excreted in urine was defined as the amount of colistin recovered in urine divided by the dose administered. The fraction of renal clearance was estimated by CLR divided by total body clearance (CL) ([Li et al., 2003])."}, "[3]": {"set-up": "method as in Li et al., 2003", "details": "Sprague-Dawley rats; ref Li et al., 2003; cited from earlier work"}, "[4]": {"details": "used for fAUC/MIC; ref Nation et al., 2016; cited from earlier work", "description": "The AUC for each dosing regimen was calculated at 24 or 72 h after therapy to evaluate the probability of target attainment (PTA) of fAUC/MIC ≥20 ([Dudhani et al., 2010a]; [Cheah et al., 2015]), where f is the unbound fraction of colistin defined as 0.49 ([Nation et al., 2016]). Dosing regimens were considered appropriate if PTA ≥90% was achieved. In addition, the average steady-state plasma colistin concentration (Css,avg) was used to evaluate the probabilities of efficacy and toxicity, and the desired Css, avg were designed to achieve target attainment rates of >80% for Css,avg ≥ 2 and <30% ..."}}, "note": "Counter-ions that a name gives are not always drawn. Positions of bridges follow the written chain, without caps; N, C: chain ends. Non-standard residues stand in square brackets, D forms with d. Residues, ends and D or L forms follow the SMILES beside them. *: point of attachment. X1 = CC[C@H](C)CCCCC(=O)*; Dab = NCC[C@H](N)C(=O)O"}
{"smiles": "CC[C@H](C)CCCCC(=O)N[C@@H](CCN)C(=O)N[C@H](C(=O)N[C@@H](CCN)C(=O)N[C@H]1CCNC(=O)[C@H]([C@@H](C)O)NC(=O)[C@H](CCN)NC(=O)[C@H](CCN)NC(=O)[C@H](CC(C)C)NC(=O)[C@@H](CC(C)C)NC(=O)[C@H](CCN)NC1=O)[C@@H](C)O", "note": "[colistin sulfate] (X1-[Dab]T[Dab][Dab][Dab][dL]L[Dab][Dab]T; lactam 4-C)", "values": [{"measurement": "dV2dALT, exponential parameter coefficient of ALT to V2, final model estimate", "setting": "[1]; PPK model, n = 20", "value": 0.635}, {"measurement": "dCLdCrCL, bootstrap median", "setting": "[1]; bootstrap with 1,000 samples", "value": 0.373}, {"measurement": "dV2dALT, bootstrap median", "setting": "[1]; bootstrap with 1,000 samples", "value": 0.633}, {"measurement": "tvCL2, bootstrap median", "setting": "[1]; bootstrap with 1,000 samples", "value": 1.78, "unit": "L/h"}, {"measurement": "tvCL, bootstrap median", "setting": "[1]; bootstrap with 1,000 samples", "value": 1.46, "unit": "L/h"}, {"measurement": "tvV2, bootstrap median", "setting": "[1]; bootstrap with 1,000 samples", "value": 53.8, "unit": "L"}, {"measurement": "tvV, bootstrap median", "setting": "[1]; bootstrap with 1,000 samples", "value": 16.2, "unit": "L"}, {"measurement": "tvV, typical value of volume of central compartment distribution (V), final model estimate", "setting": "[1]; critically ill patients, iv, n = 20, 98 plasma concentrations, two-compartment PPK model", "value": 16.1, "unit": "L"}, {"measurement": "tvCL2, typical value of inter-compartmental clearance (CL2), final model estimate", "setting": "[1]; critically ill patients, iv, n = 20, two-compartment PPK model", "value": 1.71, "unit": "L/h"}, {"measurement": "tvV2, typical value of volume of peripheral compartment distribution (V2), final model estimate", "setting": "[1]; critically ill patients, iv, n = 20, two-compartment PPK model, at ALT 37", "value": 50.5, "unit": "L"}, {"measurement": "tvCL, typical value of central compartment clearance (CL), final model estimate", "setting": "[1]; critically ill patients, iv, n = 20, two-compartment PPK model, at CrCL 57.5", "value": 1.50, "unit": "L/h"}, {"measurement": "CL, median", "setting": "[1]; six patients with urine samples, median", "value": 1.519, "unit": "L/h"}, {"measurement": "dose excreted", "setting": "[2]; human, iv, six patients, 41 urine samples, 0-12 h dosage interval after 72 h of therapy, median, read-out: percentage of colistin dose excreted in urine, median", "value": 10.1, "unit": "%"}, {"measurement": "CLR", "setting": "[2]; patient 1, 1.0 MU q12h", "value": 0.133, "unit": "L/h"}, {"measurement": "CLR/CL", "setting": "[2]; patient 1, 1.0 MU q12h", "value": 9.15, "unit": "%"}, {"measurement": "CLR", "setting": "[2]; patient 2, 1.0 MU q12h", "value": 0.405, "unit": "L/h"}, {"measurement": "CLR/CL", "setting": "[2]; patient 2, 1.0 MU q12h", "value": 15.58, "unit": "%"}, {"measurement": "CLR", "setting": "[2]; patient 3, 0.75 MU q12h", "value": 0.108, "unit": "L/h"}, {"measurement": "CLR/CL", "setting": "[2]; patient 3, 0.75 MU q12h", "value": 2.52, "unit": "%"}, {"measurement": "CLR", "setting": "[2]; patient 5, 0.75 MU q12h", "value": 0.284, "unit": "L/h"}, {"measurement": "CLR/CL", "setting": "[2]; patient 5, 0.75 MU q12h", "value": 17.95, "unit": "%"}, {"measurement": "CLR", "setting": "[2]; patient 7, 0.75 MU q12h", "value": 0.053, "unit": "L/h"}, {"measurement": "CLR/CL", "setting": "[2]; patient 7, 0.75 MU q12h", "value": 4.64, "unit": "%"}, {"measurement": "CLR", "setting": "[2]; patient 8, 0.75 MU q12h", "value": 0.767, "unit": "L/h"}, {"measurement": "12-hour urinary excretion of colistin, median", "setting": "[2]; six patients, median", "value": 4.149, "unit": "mg"}, {"measurement": "CLR as percentage of CL (CLR/CL), median", "setting": "[2]; six patients, median", "value": 12.37, "unit": "%"}, {"measurement": "renal clearance (CLR), median", "setting": "[2]; six patients, median", "value": 0.209, "unit": "L/h"}, {"measurement": "dose recovered from urine", "setting": "[3]", "value": "0.18 ± 0.14", "unit": "%"}, {"measurement": "unbound fraction (f)", "setting": "[4]", "value": 0.49}]}
